Experimental data from US8809581B2, “Method of making 6-aminocaproic acid as active pharmaceutical ingredient” (Sunny pharmtech Inc., priority 2012, dated 2014).

Assay: water solubility
Type: physicochemical
Settings: in water (substance/water)

SMILES: NCCCCCC(=O)O [6-aminocaproic acid]
- solubility: > 500 mg/mL
